Experimental data as given in patent publication EP0183129A1, “Quinolonecarboxylic acid derivatives” (KYORIN PHARMACEUTICAL CO., LTD., priority 1984, dated 1986).
≈ marks a conversion by molar mass, not a printed value. Structures can show the parent of a compound that is named as a salt. Where two headings read alike, the source gives them in different places.

Tests used:
[1] = system: Bacillus subtilis PCI 219; assay: In vitro antibacterial activity, MIC (standard strain); format: cell-based; conditions: PCI219; Bacillus subtilis PCI 219; 10^6 cells/ml; standard strain; read-out: MIC
[2] = system: Staphylococcus aureus 209 P; assay: as above; format: cell-based; conditions: Staphylococcus aureus 209 P; 10^6 cells/ml; standard strain; read-out: MIC
[3] = system: S. aureus IID 670 (Terajima); assay: as above; format: cell-based, Staphylococcus aureus; conditions: Staphylococcus aureus, IID670, S. aureus IID 670 (Terajima); 10^6 cells/ml; standard strain; read-out: MIC
S. epidermidis IID 866 = assay: as above; format: cell-based; conditions: Staphylococcus epidermidis, IID866, S. epidermidis IID 866; 10^6 cells/ml; standard strain; read-out: MIC
[4] = system: Streptococcus pyogenes S-8; assay: as above; format: cell-based; conditions: S8
S. pyogenes IID 692 = assay: as above; format: cell-based; conditions: Streptococcus pyogenes, IID692; S. pyogenes IID 692; 10^6 cells/ml; standard strain; read-out: MIC
S. pneumoniae IID 552 = assay: as above; format: cell-based; conditions: Streptococcus pneumoniae, IID552; S. pneumoniae IID 552; 10^6 cells/ml; standard strain; read-out: MIC
E. coli ATCC 10536 = assay: as above; format: cell-based; conditions: Escherichia coli, ATCC10536; E. coli ATCC 10536; 10^6 cells/ml; standard strain; read-out: MIC
E. coli ML 4707 = assay: as above; format: cell-based; conditions: Escherichia coli, ML4707; E. coli ML 4707; 10^6 cells/ml; standard strain; read-out: MIC
[5] = system: Proteus vulgaris IFO 3167; assay: as above; format: cell-based; conditions: IFO3167; Proteus vulgaris IFO 3167; 10^6 cells/ml; standard strain; read-out: MIC
P. mirabilis IID 994 = assay: as above; format: cell-based; conditions: Proteus mirabilis, IID994; P. mirabilis IID 994; 10^6 cells/ml; standard strain; read-out: MIC
[6] = system: Klebsiella pneumoniae KY(GN)6445; assay: as above; format: cell-based; conditions: Klebsiella pneumoniae KY(GN)6445; 10^6 cells/ml; standard strain; read-out: MIC
Shigella sonnei IID 969 = assay: as above; format: cell-based; conditions: IID969, 10^6 cells/ml
Protocol: Experiment-1 In vitro antibacterial activity
The in vitro antibacterial activity against gram-positive and gram-negative bacteria has been investivated.
The minimum inhibitory concentration (MIC) was determined in accordance with the method recommended by Japan Society of Chemotherapy.

[7] = system: Yersinia enterocolitica IID 981; assay: as above; format: cell-based; conditions: IID981; Yersinia enterocolitica IID 981; 10^6 cells/ml; standard strain; read-out: MIC
S. marcescens GN 7577 = assay: as above; format: cell-based; conditions: Serratia marcescens, GN7577
[8] = system: Pseudomonas aeruginosa V-1; assay: as above; format: cell-based; conditions: V1; Pseudomonas aeruginosa V-1; 10^6 cells/ml; standard strain; read-out: MIC
P. aeruginosa IFO 12689 = assay: as above; format: cell-based, Pseudomonas aeruginosa; conditions: Pseudomonas aeruginosa, IFO12689; P. aeruginosa IFO 12689; 10^6 cells/ml; standard strain; read-out: MIC
P. aeruginosa IID 1210 = assay: as above; format: cell-based; conditions: Pseudomonas aeruginosa, IID1210; P. aeruginosa IID 1210; 10^6 cells/ml; standard strain; read-out: MIC
[9] = system: Alcaligenes faecalis 0104002; assay: as above; format: cell-based; conditions: Alcaligenes faecalis, 0104002, Alcaligenes faecalis 0104002; 10^6 cells/ml; standard strain; read-out: MIC
B. fragilis 25285 = assay: as above; format: cell-based, Bacteroides fragilis; conditions: Bacteroides fragilis, 25285, B. fragilis 25285; 10^6 cells/ml; standard strain; read-out: MIC
[10] = system: Fusobacterium varium KYA 8501; assay: as above; format: cell-based; conditions: Fusobacterium varium, KYA8501, Fusobacterium varium KYA 8501; 10^6 cells/ml; standard strain; read-out: MIC
[11] = system: Clostridium perfringens KYA 13123; assay: microbe, parasite or virus in culture; format: cell-based; conditions: KYA13123
C. ramosum = assay: In vitro antibacterial activity, MIC (standard strain); format: cell-based; conditions: Thomasclavelia ramosa; C. ramosum; 10^6 cells/ml; standard strain; read-out: MIC
S. pneumoniae 15 = assay: In vitro antibacterial activity, MIC (clinical isolates); format: cell-based; conditions: Streptococcus pneumoniae; S. pneumoniae 15; 10^6 cells/ml; clinical isolate; read-out: MIC
S. pneumoniae 2950 = assay: as above; format: cell-based; conditions: Streptococcus pneumoniae
S. pyogenes 3102 = assay: as above; format: cell-based; conditions: Streptococcus pyogenes
S. pyogenes 4372 = assay: as above; format: cell-based; conditions: Streptococcus pyogenes
S. agalactiae 4049 = assay: as above; format: cell-based; conditions: Streptococcus agalactiae; S. agalactiae 4049; 10^6 cells/ml; clinical isolate; read-out: MIC
S. agalactiae 4368 = assay: as above; format: cell-based; conditions: Streptococcus agalactiae; S. agalactiae 4368; 10^6 cells/ml; clinical isolate; read-out: MIC
S. agalactiae 4468 = assay: as above; format: cell-based; conditions: Streptococcus agalactiae; S. agalactiae 4468; 10^6 cells/ml; clinical isolate; read-out: MIC
[12] = Streptococcus pyogenes S-8, 10^6 cells/ml, standard strain, read-out: MIC
[13] = S. marcescens GN 7577, 10^6 cells/ml, standard strain, read-out: MIC
[14] = S. pneumoniae 2950, 10^6 cells/ml, clinical isolate, read-out: MIC
[15] = S. pyogenes 3102, 10^6 cells/ml, clinical isolate, read-out: MIC
[16] = S. pyogenes 4372, 10^6 cells/ml, clinical isolate, read-out: MIC

Row | SMILES | MIC [1] [µg/mL] | MIC [2] [µg/mL] | MIC [3] [µg/mL] | MIC (S. epidermidis IID 866) [µg/mL] | MIC (S. pyogenes IID 692) [µg/mL] | MIC (S. pneumoniae IID 552) [µg/mL] | MIC (E. coli ATCC 10536) [µg/mL] | MIC (E. coli ML 4707) [µg/mL] | MIC [5] [µg/mL] | MIC (P. mirabilis IID 994) [µg/mL] | MIC [6] [µg/mL] | MIC (Shigella sonnei IID 969) [µg/mL] | MIC [7] [µg/mL] | MIC [8] [µg/mL] | MIC (P. aeruginosa IFO 12689) [µg/mL] | MIC (P. aeruginosa IID 1210) [µg/mL] | MIC [9] [µg/mL] | MIC (B. fragilis 25285) [µg/mL] | MIC [10] [µg/mL] | MIC [11] [µg/mL] | also measured
1 | NCC1CCN(c2c(F)cc3c(=O)c(C(=O)O)cn(C4CC4)c3c2F)C1 (stereo not drawn) [Example 1, 7-(3-Aminomethyl-l-pyrrolidinyl)-l-cyclopropyl-6,8-difluoro-1,4-dihydro-4-oxo-3-quinolinecarboxylic acid hydrochloride] | 0.025 | 0.05 | 0.05 | 0.05 | 0.05 | 0.05 | 0.025 | 0.025 | 0.025 | 0.05 | 0.05 | 0.025 | 0.05 | 0.39 | 0.39 | 0.78 | 0.39 | 0.39 | 0.78 | 0.39 | MIC [4, 12]: 0.05 µg/mL; MIC (S. marcescens GN 7577; [13]): 0.78 µg/mL; MIC (C. ramosum): 0.78 µg/mL; MIC (S. pneumoniae 15): 0.05 µg/mL; MIC (S. pneumoniae 2950; [14]): 0.05 µg/mL; MIC (S. pyogenes 3102; [15]): 0.05 µg/mL; MIC (S. pyogenes 4372; [16]): 0.05 µg/mL; MIC (S. agalactiae 4049): 0.05 µg/mL; MIC (S. agalactiae 4368): 0.05 µg/mL; MIC (S. agalactiae 4468): 0.05 µg/mL
2 | CCn1cc(C(=O)O)c(=O)c2cc(F)c(N3CCNCC3)cc21 [NFLX, Norfloxacin, reference compound] | 0.1 (≈ 0.313 µM) | 0.78 (≈ 2.44 µM) | 0.78 (≈ 2.44 µM) | 0.39 (≈ 1.22 µM) | 3.13 (≈ 9.8 µM) | 3.13 (≈ 9.8 µM) | 0.05 (≈ 0.157 µM) | 0.05 (≈ 0.157 µM) | 0.025 (≈ 0.0783 µM) | 0.05 (≈ 0.157 µM) | 0.05 (≈ 0.157 µM) | 0.05 (≈ 0.157 µM) | 0.1 (≈ 0.313 µM) | 0.78 (≈ 2.44 µM) | 0.78 (≈ 2.44 µM) | 3.13 (≈ 9.8 µM) | 3.13 (≈ 9.8 µM) | 25 (≈ 78.3 µM) | 100 (≈ 313 µM) | 1.56 (≈ 4.89 µM) | MIC ([4]; Streptococcus pyogenes): 1.56 µg/mL (≈ 4.89 µM); MIC (S. marcescens GN 7577): 1.56 µg/mL (≈ 4.89 µM); MIC (C. ramosum): 50 µg/mL (≈ 157 µM); MIC (S. pneumoniae 15): 3.13 µg/mL (≈ 9.8 µM); MIC (S. pneumoniae 2950; 2950): 12.5 µg/mL (≈ 39.1 µM); MIC (S. pyogenes 3102; 3102): 1.56 µg/mL (≈ 4.89 µM); MIC (S. pyogenes 4372; 4372): 1.56 µg/mL (≈ 4.89 µM); MIC (S. agalactiae 4049): 6.25 µg/mL (≈ 19.6 µM); MIC (S. agalactiae 4368): 3.13 µg/mL (≈ 9.8 µM); MIC (S. agalactiae 4468): 3.13 µg/mL (≈ 9.8 µM)
3 | CN(C)CC1CCN(c2c(F)cc3c(=O)c(C(=O)O)cn(C4CC4)c3c2Cl)C1 (stereo not drawn) [Example 20, 8-Chloro-1-cyclopropyl-6-fluoro-1,4-dihydro-7-(3-dimethylaminomethyl-l-pyrrolidinyl)-4-oxo-3-quinolinecarboxylic acid] | 0.025 (≈ 0.0613 µM) | 0.025 (≈ 0.0613 µM) | 0.05 (≈ 0.123 µM) | 0.05 (≈ 0.123 µM) | 0.1 (≈ 0.245 µM) | 0.05 (≈ 0.123 µM) | 0.025 (≈ 0.0613 µM) | 0.05 (≈ 0.123 µM) | 0.05 (≈ 0.123 µM) | 0.05 (≈ 0.123 µM) | 0.05 (≈ 0.123 µM) | 0.05 (≈ 0.123 µM) | 0.1 (≈ 0.245 µM) | 0.39 (≈ 0.956 µM) | 3.13 (≈ 7.67 µM) | 1.56 (≈ 3.82 µM) | 0.39 (≈ 0.956 µM) | ≤ 0.05 | 0.78 (≈ 1.91 µM) | 0.1 (≈ 0.245 µM) | MIC [4, 12]: 0.05 µg/mL (≈ 0.123 µM); MIC (S. marcescens GN 7577; [13]): 1.56 µg/mL (≈ 3.82 µM); MIC (C. ramosum): 0.39 µg/mL (≈ 0.956 µM); MIC (S. pneumoniae 15): 0.05 µg/mL (≈ 0.123 µM); MIC (S. pneumoniae 2950; [14]): 0.05 µg/mL (≈ 0.123 µM); MIC (S. pyogenes 3102; [15]): 0.05 µg/mL (≈ 0.123 µM); MIC (S. pyogenes 4372; [16]): 0.1 µg/mL (≈ 0.245 µM); MIC (S. agalactiae 4049): 0.1 µg/mL (≈ 0.245 µM); MIC (S. agalactiae 4368): 0.05 µg/mL (≈ 0.123 µM); MIC (S. agalactiae 4468): 0.1 µg/mL (≈ 0.245 µM)
